The values that follow come from paper PMC5684506 (BioImpacts : BI, 2017).

The assay addresses T1, bovine liver catalase (BLC) (Bos taurus, UniProt P00432).
T1 sequence (P00432 2-527): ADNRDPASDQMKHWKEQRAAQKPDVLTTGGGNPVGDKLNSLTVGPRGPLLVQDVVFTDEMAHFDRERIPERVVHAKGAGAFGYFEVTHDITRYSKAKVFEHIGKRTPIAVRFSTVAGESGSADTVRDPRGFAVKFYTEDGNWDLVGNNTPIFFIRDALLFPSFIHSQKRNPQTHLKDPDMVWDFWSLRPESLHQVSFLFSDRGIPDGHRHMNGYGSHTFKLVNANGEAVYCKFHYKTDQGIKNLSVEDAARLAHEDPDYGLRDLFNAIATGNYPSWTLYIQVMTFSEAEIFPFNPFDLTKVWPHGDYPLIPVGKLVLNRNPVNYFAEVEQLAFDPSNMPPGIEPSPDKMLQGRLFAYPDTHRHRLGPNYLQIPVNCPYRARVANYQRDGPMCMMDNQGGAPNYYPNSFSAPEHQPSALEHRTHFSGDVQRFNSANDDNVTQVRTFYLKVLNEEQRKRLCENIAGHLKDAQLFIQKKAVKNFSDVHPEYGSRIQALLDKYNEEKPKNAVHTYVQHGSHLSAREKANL
The assay is described as follows: UV assay of H2O2 decomposition at […] nm with Lineweaver-Burk analysis. In kind it is biochemical.

In general, Ki refers to a dissociation constant, usually derived from enzyme kinetics or from competition with a known ligand. Low values mean a stronger hold on the target, high ones a looser hold on the target. `O=c1c(O)c(-c2ccc(O)c(O)c2)oc2cc(O)cc(O)c12` [QUE, 3,5,7,3ʹ,4ʹ-pentahydroxyflavone] yielded an inhibition constant Ki of 46 µM.
